The text below walks through data of patent publication US6048840A, “Hypoglycaemic peptides” (Monash University, priority 1987, dated 2000).

Non-standard residues stand in square brackets, D forms with d. No end group written: not given here.

Test [1] deals with cultured muscle cells (L6 rat skeletal muscle cell line). Nature of the test: Cultured cell assay for stimulation of glucose uptake. The class given is cell-based. The following applies: peptide 10 μg/ml. From the text: (§1) In these assays collagenase-dispersed rat adipocytes, cultured muscle cells (L6 rat skeletal muscle cell line) and hemidiaphragm preparations were employed.
(§2) The effect of the β imide form peptides on glucose metabolism is further shown by their ability to stimulate glucose uptake and glycogen synthesis by cultured muscle cells and isolated rat hemidiaphragms.

In another test the test system is rats. The test is described as follows: Change in blood glucose level in rats following intravenous injection of peptides. The format is in vivo, rat. From the text: (i) Effect on basal blood glucose levels
Values are changes (means ±SEM) of blood glucose from the basal level (4.0-4.4 mmol glucose/l) at time 0. Differences between the control and test groups were statistically evaluated according to Student's t-test. N.S. indicates 2P>0.05.

For test [2], the system named is isolated rat hemidiaphragms. Nature of the test: Isolated muscle assay for stimulation of glycogen synthesis. The following applies: peptide 100 μg/ml. The class given is cell-based.
From the text: as §1, §2

As to LSRL[dF]DNA [Pep P057], the “Rate of Increase from Basal (glucose uptake)” value in test [1] was found to be 2.0 μmol glucose/hour.
In the case of “Pep (6-15): α-form synthetic peptide equivalent to hGH residues 6-15 (LSRLFDNAML; Somatotropin; UniProt P01241 32-41, looked up, fragment)”, in the test with rats (i.v., peptide 0.5 μmol/100 g, control decrease 1.05), the Difference from control means amounted to 0.21 mmol/L. In addition, the “Hypoglycaemic effect / activity in words” value in the test with rats (intravenous injection of peptide) is “active only in the β imide form”. Further, the “Decrease in blood glucose from basal levels” value in the test on rats (intravenous injection, peptide 0.5 μmol/100 g, basal level 4.0-4.4 mmol glucose/l at time 0) stood at 1.26 mmol glucose/l.
For “SRLFDNA [Pep P015, synthetic peptide; b240 implies β imide form]”, the “Rate of Increase from Basal (glucose uptake)” value in test [1] came to 1.5 μmol glucose/hour.
For CYLSRLFDNA [Pep P168], in test [1], the “Rate of Increase from Basal (glucose uptake)” value was found to be 4.0 μmol glucose/hour.
For LSRLFDQA [Pep P076], the “Rate of Increase from Basal (glycogen synthesis)” value in test [2] is recorded as 0.30 μmol glycogen/g tissue/h.
The same measure, in the same setting: in the case of LSKLFDNA [Pep P090] it was 0.16 μmol glycogen/g tissue/h; in that of LSRLHDNA [Pep P078], 0.11 μmol glycogen/g tissue/h.
Regarding CYLSRLFDNA [Pep P202], the “Rate of Increase from Basal (glucose uptake)” value in test [1] is 1.9 μmol glucose/hour. Besides, the “Rate of Increase from Basal (glycogen synthesis)” value in test [2] was 0.44 μmol glycogen/g tissue/h.
For LSRLFDNAG [Pep P063], in test [1], the “Rate of Increase from Basal (glucose uptake)” value is listed as 1.9 μmol glucose/hour.
As to LSRVFDNA [Pep P086], the “Rate of Increase from Basal (glucose uptake)” value in test [1] is 4.9 μmol glucose/hour.
Regarding CYLSRLFDNN [Pep P197], in test [2], the “Rate of Increase from Basal (glycogen synthesis)” value worked out at 0.17 μmol glycogen/g tissue/h.
Regarding LSRIFDNA [Pep P087], in test [2], the “Rate of Increase from Basal (glycogen synthesis)” value was 0.36 μmol glycogen/g tissue/h.
Turning to “LSRLFDNA [Pep P051, b240 implies β imide form]”, the “Rate of Increase from Basal (glucose uptake)” value in test [1] is reported as 3.3 μmol glucose/hour. The “Rate of Increase from Basal (glycogen synthesis)” value in test [2] stood at 0.74 μmol glycogen/g tissue/h.
